Each structure is given as a SMILES string.

Assay [1] has as its system Hh pathway (Gli-responsive firefly luciferase reporter in Shh-LIGHT2 cells). As to the kind of experiment: Shh-LIGHT2 assay for Hh pathway activity. It counts as cell-based. Conditions: 10% Shh-conditioned medium, 24 hours, firefly/Renilla luciferase ratio. As to the method:
Shh-N-conditioned medium was prepared as described by Chen et al., Proc. Natl. Acad. Sci. U.S.A. 99, 14071 (2002). Shh-LIGHT2 cells [J. Taipale et al., Nature 406, 1005 (2000)], an NIH-3T3-based cell line containing a stably integrated Gli-responsive firefly luciferase reporter and a constitutive thymidine kinase promoter-driven Renilla luciferase expression construct (pRLTK, Promega), were cultured in DMEM containing 10% calf serum. 100 U/mL penicillin, and 0.1 mg/mL streptomycin. The cells were seeded into 96-well plates at a density of 30,000 cells/well, and the following day they were treated with individual compounds or DMSO in DMEM containing 0.5% calf serum, 10% Shh-conditioned medium, and the antibiotics described above. After being cultured for another 24 hours, the cells were lysed and their firefly and Renilla luciferase activities were determined using, a dual luciferase reporter kit (Promega) and a microplate luminometer (Veritas). Average values representing the firefly luciferase/Renilla luciferase ratio from triplicate samples were used to construct dose response profiles for each compound. Dose-response data from three separate experiments were independently curve-fitted with a variable slope, sigmoidal dose-response algorithm using Prism software, and the resulting IC50 values were used to generate an average IC50 for each compound.

The subject of assay [2] is primary cilia of Shh-EGFP cells. As to the kind of experiment: Quantitative assessment of ciliogenesis (Arl13b staining, cilia size). It counts as cell-based. Conditions: 24 hours, read-out: Primary cilia size (percent of DMSO control at a 30 μM dose). As to the method:
Shh-EGFP cells [J. Hyman et al., Proc. Natl. Acad. Sci. U.S.A., (2009)], an NIH-3T3-based cell line containing a stably integrated Gli-responsive enhanced green fluorescent protein reporter, were maintained in DMEM containing 10% calf serum, 100 U/mL penicillin, and 0.1 mg/mL streptomycin. The cells were seeded into 24-well plates containing poly-D-lysine-coated 12-mm glass coverslips at a density of 30,000 cells/well and cultured for 36 hours. The cells were transferred into DMEM containing 0.5% calf serum, the antibiotics described above, and either individual compounds at a 30 μM concentration or 0.3% DMSO. After being cultured for another 24 hours, the cells were fixed in PBS containing 4% paraformaldehyde for 10 minutes at room temperature, washed 3×5 minutes with PBS, permeabilized with PBS containing 0.3% Triton X-100 for 5 minutes, and blocked overnight at 4° C. with PBS containing 5% normal goat serum, 0.1% Triton X-100, and 0.05% sodium azide. The coverslips were then incubated for 90 minutes at room temperature with blocking buffer containing rabbit polyclonal anti-Arl 13b antibody (1:3000 dilution), washed 4×5 minutes with PBS containing 0.1% Triton X-100, and incubated for 60 minutes with blocking buffer containing Alexa Fluor 488-conjugated goat polyclonal anti-rabbit IgG antibody (1:300 dilution; Invitrogen, A-11034). Following this secondary antibody incubation, nuclei were stained by incubating the cells 2×10 minutes with PBS containing 0.1% Triton X-100 and […] 4′,6-diamidino-2-phenylindole (DAPI) and washing them 2×5 minutes with PBS. The coverslips were subsequently mounted onto slides using Prolong Gold Antifade Reagent (Invitrogen) and imaged using an HC Plan Apochromat CS 20×/0.70 NA oil immersion objective on a Leica DMI6000B compound microscope equipped with a Photometric CoolSNAP HQ CCD camera and Metamorph software (Molecular Devices). Images of Arl13b staining in DMSO-treated cells were manually examined to establish a minimum threshold value for cilia staining intensity. ImageJ software was then used to define objects consisting of two or more adjacent pixels with a signal intensity equal to or greater than this threshold value, and the total object area within an individual image was used to estimate the total pixel area of primary cilia. Corresponding images of DAPI staining were processed in parallel using CellProfiler software to establish the number of nuclei per image. The average cilia size per cell within an individual image was then determined by dividing the total ciliary pixel area by the number of nuclei. Ten individual images, each containing approximately 150 cells. were used to quantify the average cilia size for each experimental condition.
Shh-EGFP cells, an NIH-3T3-based cell line containing a stably integrated Gli-responsive enhanced green fluorescent protein reporter, were maintained in DMEM containing 10% (v/v) calf serum, 100 U/mL penicillin, and 0.1 mg/mL streptomycin. The cells were seeded into 24-well plates containing poly-D-lysine-coated 12-mm glass coverslips at a density of 30,000 cells/well and cultured for 36 hours. The cells were transferred into DMEM containing 0.5% (v/v) calf serum, the antibiotics described above, and either individual dihydroquinazolinones at a 30 μM concentration or an equivalent amount of DMSO vehicle (0.3%, v/v). After being cultured for another 24 hours, the cells were fixed in PBS containing 4% (w/v) paraformaldehyde for 10 min at room temperature, washed 3×5 min with PBS, permeabilized with PBS containing 0.3% (v/v) Triton X-100 for 5 min, and blocked overnight at 4° C. with PBS containing 5% (v/v) normal goat serum, 0.1% (v/v) Triton X-100, and 0.05% (w/v) sodium azide. […]

For assay [3], the system named is Gli3 processing in Shh-EGFP cells. As to the kind of experiment: Quantitative assessment of Hh ligand-dependent Gli3 processing. Conditions: Shh-EGFP cells stimulated with Shh-N, 16 hours. The class given is cell-based. The method, then:
Shh-EGFP cells were seeded into 12-well plate at a density of 120,000 cells/well in DMEM containing 10% calf serum. 100 U/mL penicillin, and 0.1 mg/mL streptomycin. After being cultured for 24 hours, the cells were transferred into DMEM containing 0.5% calf serum, 10% Shh-conditioned medium, the antibiotics described above, and either individual compounds or DMSO. The cells were cultured for an additional 16 hours, washed with PBS, and then lysed by incubation on ice with SDS-PAGE loading buffer composed of 8% glycerol, 20 mM Tris-HCl, pH 6.8, 2% SDS, 100 mM DTT, 1 mM PMSF, 20 mM NaF, 2 mM Na3VO4, and an EDTA-free protease inhibitor cocktail (Roche). The lysed samples were heated to 100° C. for 7 minutes, loaded onto 3-8% Criterion XT Tris-Acetate polyacrylamide gels (Bio-Rad), electrophoresed in XT Tricine buffer (Bio-Rad), and transferred onto PVDF membranes. The membranes were dehydrated with methanol and probed overnight at 4° C. with goat polyclonal anti-Gli3 antibody (0.4 μg/mL: R & D Systems, AF3690) in PBS containing 4% non-fat dry milk and 0.1% Tween-20 (immunoblot blocking buffer). The blots were then washed 4×1 minutes in PBS and incubated with horseradish peroxidase-conjugated bovine polyclonal anti-goat IgG antibody (0.04 μg/mL, Jackson ImmunoResearch, 805-035-180) in immunoblot blocking buffer for 1 hour at room temperature. The membranes were next washed 4×1 minutes in PBS and visualized using SuperSignal West Dura Extended Duration substrate (Thermo Scientific) and a ChemiDoc XRS imaging system (Bio-Rad). Band intensities of Gli3FL and Gli3R where quantified using Quantity One software (Bio-Rad), and five independent experiments were used to determine the average Gli3FL/Gli3R ratio for each compound.

Assay [4] has as its system medulloblastoma. Conditions: human patient; cited from earlier work.
The test system of assay [5] is basal cell carcinoma. Conditions: 33 human patients; cited from earlier work.

As for `N#C/C(C(=O)c1ccccc1F)=C1\NC(=O)c2ccccc2N1` [Example 11], in assay [1], the IC50 came out at 30 µM.
On the same count and under the same terms, then `N#C/C(C(=O)c1ccc(Cl)cc1Cl)=C1\NC(=O)c2ccc(I)cc2N1` [Example 32], with 12 µM.
As for `N#C/C(C(=O)c1cc(Cl)cc(Cl)c1)=C1\NC(=O)c2ccccc2N1` [Example 19], the concentration for half-maximal inhibition (IC50) in assay [1] is 3 µM. The activity at 30 µM in assay [2] turned out to be 65%.
For the compound `COc1ccc2c(c1)N/C(=C(/C#N)C(=O)c1ccc(Cl)cc1Cl)NC2=O` [Example 33], the 50% inhibitory concentration (IC50) in assay [1] was found to be 15 µM.
`Cc1ccc(C(=O)/C(C#N)=C2/NC(=O)c3ccccc3N2)cc1` [Example 5]: the IC50 in assay [1] is 15 µM.
Regarding `N#C/C(C(=O)c1ccc(Cl)cc1Cl)=C1\NC(=O)c2c(Cl)cccc2N1` [Example 25, 2-(5-chloro-4-oxo-3,4-dihydroquinazolin-2(1H)-ylidene)-3-(2,4-dichlorophenyl)-3-oxo-propanenitrile], the half-maximal inhibitory concentration (IC50) in assay [1] is 11 µM. Besides, the activity at 30 µM in assay [2] is 32%. In assay [3], the Gli3FL/Gli3R ratio entry is given as “altered the Gli3FL/Gli3R ratio” and the “Shh-N-dependent Gli3FL phosphorylation” value is “reduced”.
For the compound `CC(=O)NCC#Cc1ccc2c(c1)C(=O)N/C(=C(\C#N)C(=O)c1ccc(Cl)cc1Cl)N2` [Example 30], the 50% inhibitory concentration (IC50) in assay [1] is 30 µM.
`N#C/C(C(=O)c1ccc([N+](=O)[O-])cc1)=C1\NC(=O)c2ccccc2N1` [Example 9]: the concentration for half-maximal inhibition (IC50) in assay [1] stood at 25 µM.
The same measure, in the same setting: the figure for `N#C/C(C(=O)c1ccccc1I)=C1\NC(=O)c2ccccc2N1` [Example 13] is 20 µM; for `Cc1ccccc1C(=O)/C(C#N)=C1/NC(=O)c2ccccc2N1` [Example 14] it is 30 µM.
Same read-out and setting: the figure for `Cc1cccc2c1C(=O)N/C(=C(\C#N)C(=O)c1ccc(Cl)cc1Cl)N2` [Example 26] is 10 µM; for `CC(C)Cc1ccc(C(=O)/C(C#N)=C2/NC(=O)c3ccccc3N2)cc1` [Example 6] it is 6.5 µM.
Regarding `N#C/C(C(=O)c1cccc(Cl)c1)=C1\NC(=O)c2ccccc2N1` [Example 17, 3-(3-chlorophenyl)-3-oxo-2-(4-oxo-3,4-dihydroquinazolin-2 (1H)-ylidene)propanenitrile], the 50% inhibitory concentration (IC50) in assay [1] was 5.5 µM. Besides, in assay [2], the activity at 30 µM came out at 68%.
Take `N#C/C(C(=O)c1ccc(Br)cc1)=C1\NC(=O)c2ccccc2N1` [Example 3]: the 50% inhibitory concentration (IC50) in assay [1] turned out to be 5 µM.
For the compound `N#C/C(=C\c1ccc(Cl)cc1Cl)C1NC(=O)c2ccccc2N1` (stereo not drawn) [Example 24], the concentration for half-maximal inhibition (IC50) in assay [1] is more than 50 µM. In addition, the activity at 30 µM in assay [2] was determined as 104%.
In the case of `COc1ccccc1C(=O)/C(C#N)=C1/NC(=O)c2ccccc2N1` [Example 15], in assay [1], the half-inhibitory concentration (IC50) is more than 30 µM.
For `N#C/C(C(=O)c1ccccc1Cl)=C1\NC(=O)c2ccccc2N1` [Example 10, 3-(2-chlorophenyl)-3-oxo-2-(4-oxo-3,4-dihydroquinazolin-2(1H)-ylidene)propanenitrile], the IC50 in assay [1] came out at 25 µM. Moreover, the activity at 30 µM in assay [2] came to 93%.
As to `N#C/C(C(=O)c1ccccc1Br)=C1\NC(=O)c2ccccc2N1` [Example 12], in assay [1], the half-inhibitory concentration (IC50) came to 15 µM.
Same read-out and setting: the figure for `COc1ccc(C(=O)/C(C#N)=C2/NC(=O)c3ccccc3N2)cc1` [Example 8] is 30 µM.
As to `N#C/C(C(=O)c1ccc(Cl)cc1Cl)=C1\NC(=O)c2cc(Cl)ccc2N1` [Example 27, 2-(6-chloro-4-oxo-3,4-dihydroquinazolin-2(1H)-ylidene)-3-(2,4-dichlorophenyl)-3-oxopropanenitrile], in assay [1], the IC50 turned out to be 6.1 µM. Further, the activity at 30 µM in assay [2] was 11%. Moreover, in assay [3], the Gli3FL/Gli3R ratio entry is given as “altered the Gli3FL/Gli3R ratio” and the “Shh-N-dependent Gli3FL phosphorylation” value is “reduced”.
For the compound `N#C/C(C(=O)c1ccc(Cl)cc1Cl)=C1\NC(=O)c2cc(I)ccc2N1` [Example 28], the IC50 in assay [1] came out at 6 µM.
In the case of `N#C/C(C(=O)c1ccc(Cl)cc1Cl)=C1\NC(=O)c2cc(C#CCN)ccc2N1` [Example 29], the IC50 in assay [1] is 20 µM.
With `N#C/C(C(=O)c1ccc(Cl)c(Cl)c1)=C1\NC(=O)c2ccccc2N1` [Example 18], in assay [1], the IC50 worked out at 3 µM. In addition, the activity at 30 µM in assay [2] amounted to 16%.
With `Cc1cccc(C(=O)/C(C#N)=C2/NC(=O)c3ccccc3N2)c1` [Example 22], the concentration for half-maximal inhibition (IC50) in assay [1] was 5 µM.
On the same count and under the same terms, then `N#C/C(C(=O)c1ccc(I)cc1)=C1\NC(=O)c2ccccc2N1` [Example 4], with 4.5 µM.
Still for that read-out and setting: the figure for `N#C/C(C(=O)c1cccc2ccccc12)=C1\NC(=O)c2ccccc2N1` [Example 21] is 20 µM.
In the case of `CS(=O)(=O)c1ccc(C(=O)Nc2ccc(Cl)c(-c3ccccn3)c2)c(Cl)c1` [GDC-0449], in assay [4], the “tumor response, medulloblastoma” value is “regression of medulloblastoma”. Further, the “tumor response, basal cell carcinoma” value in assay [5] is given as “clinically significant response”.
As to `O=C(/C=C1/NC(=O)c2ccccc2N1)c1ccc(Cl)cc1Cl` [Example 23], in assay [1], the IC50 came out at 4.4 µM. In assay [2], the activity at 30 µM came out at 70%.
Regarding `COc1cc(C(=O)/C(C#N)=C2/NC(=O)c3ccccc3N2)cc(OC)c1OC` [Example 20], the half-maximal inhibitory concentration (IC50) in assay [1] is more than 30 µM.

The values above are taken from patent US9145376B2, “Quinazolinone inhibitors of dynein” (The Rockefeller University, priority 2011, dated 2015).
